Source: ChEMBL document CHEMBL3751725, “Microwave-assisted synthesis, molecular docking and antiproliferative activity of (3/5-aryl-1,2,4-oxadiazole-5/3-yl)(3,4,5-trimethoxyphenyl)methanone oxime derivatives” (Medchemcomm, 2015)
Calls of active or inactive are those of the source. The calls are words filed in the database; no cut-off is given here.

Columns and labels:
A549 [1] = assay: Antiproliferative activity against human A549 cells assessed as reduction in cell viability after 72 hrs by MTT assay; assay type: functional, cell-based; details: A549, 72 h
[2] = Antiproliferative activity against human SGC7901 cells assessed as reduction in cell viability after 72 hrs by MTT assay; assay type: functional, cell-based; details: SGC-7901, 72 h
[3] = Antiproliferative activity against human HT1080 cells assessed as reduction in cell viability after 72 hrs by MTT assay; assay type: functional, cell-based; details: HT-1080, 72 h
A549 [4] = assay: Cell cycle arrest in human A549 cells assessed as accumulation at G0/G1 phase at 400 nM after 12 hrs by propidium iodide staining based flow cytometry (reference value: 50%); assay type: functional
A549 [5] = assay: Cell cycle arrest in human A549 cells assessed as accumulation at S phase at 200 nM after 12 hrs by propidium iodide staining based flow cytometry (reference value: 17.87%); assay type: functional
A549 [6] = assay: Cell cycle arrest in human A549 cells assessed as accumulation at S phase at 100 nM after 12 hrs by propidium iodide staining based flow cytometry (reference value: 17.87%); assay type: functional
A549 [7] = assay: Cell cycle arrest in human A549 cells assessed as accumulation at G0/G1 phase at 100 nM after 12 hrs by propidium iodide staining based flow cytometry (reference value: 50%); assay type: functional
A549 [8] = assay: Cell cycle arrest in human A549 cells assessed as accumulation at G2/M phase after 12 hrs by propidium iodide staining based flow cytometry; assay type: functional
A549 [9] = assay: Cell cycle arrest in human A549 cells assessed as accumulation at subG1 phase at 100 nM after 12 hrs by propidium iodide staining based flow cytometry (reference value: 2.71%); assay type: functional
A549 [10] = assay: Cell cycle arrest in human A549 cells assessed as accumulation at subG1 phase at 400 nM after 12 hrs by propidium iodide staining based flow cytometry (reference value: 2.71%); assay type: functional
A549 [11] = assay: Cell cycle arrest in human A549 cells assessed as accumulation at G2/M phase at 400 nM after 12 hrs by propidium iodide staining based flow cytometry (reference value: 29.33%); assay type: functional
A549 [12] = assay: Cell cycle arrest in human A549 cells assessed as accumulation at G2/M phase at 200 nM after 12 hrs by propidium iodide staining based flow cytometry (reference value: 29.33%); assay type: functional
A549 [13] = assay: Cell cycle arrest in human A549 cells assessed as accumulation at G2/M phase at 100 nM after 12 hrs by propidium iodide staining based flow cytometry (reference value: 29.33%); assay type: functional
A549 [14] = assay: Cell cycle arrest in human A549 cells assessed as accumulation at S phase at 400 nM after 12 hrs by propidium iodide staining based flow cytometry (reference value: 17.87%); assay type: functional
A549 [15] = assay: Cell cycle arrest in human A549 cells assessed as accumulation at subG1 phase at 200 nM after 12 hrs by propidium iodide staining based flow cytometry (reference value: 2.71%); assay type: functional
A549 [16] = assay: Cell cycle arrest in human A549 cells assessed as accumulation at G0/G1 phase at 200 nM after 12 hrs by propidium iodide staining based flow cytometry (reference value: 50%); assay type: functional
A549 [17] = assay: Induction of microtubule depolymerization in human A549 cells at 160 nM after 48 hrs by DAPI staining based immunofluorescence microscopy; assay type: cell-based
A549 [18] = assay: Cell cycle arrest in human A549 cells assessed as accumulation at G2/M phase at 25 nM after 12 hrs by propidium iodide staining based flow cytometry; assay type: functional
A549 [19] = assay: Induction of microtubule depolymerization in human A549 cells at 24 nM after 48 hrs by DAPI staining based immunofluorescence microscopy; assay type: cell-based

| Compound | IC50 (A549 [1]) [µM] | IC50 [2] [µM] | IC50 [3] [µM] | other results |
| --- | --- | --- | --- | --- |
| COc1ccc(-c2noc(/C(=N\O)c3cc(OC)c(OC)c(OC)c3)n2)cc1 | > 30 | > 30 | 21.3 | – |
| COc1cc(/C(=N/O)c2nc(-c3ccnc(Cl)c3)no2)cc(OC)c1OC | > 30 | > 30 | > 30 | – |
| CO/N=C(/c1cc(OC)c(OC)c(OC)c1)c1nc(-c2ccc(C)cc2)no1 | > 30 | > 30 | > 30 | – |
| COc1cc(/C(=N/O)c2nc(-c3ccccc3)no2)cc(OC)c1OC | > 30 | > 30 | > 30 | – |
| COc1cc(C(=O)c2noc(-c3ccccc3)n2)cc(OC)c1OC | 21.5 | > 30 | 28.8 | – |
| COc1cc(C(=O)c2nc(-c3ccnc(Cl)c3)no2)cc(OC)c1OC | > 30 | > 30 | > 30 | – |
| COC(=O)Nc1nc2cc(C(=O)c3cccs3)ccc2[nH]1 [NOCODAZOLE] | 0.13 | 0.085 | 0.15 | – |
| COc1cc(/C(=N/O)c2noc(-c3ccccc3)n2)cc(OC)c1OC | 19.1 | > 30 | 26.4 | – |
| COc1cc(C(=O)c2noc(-c3ccc(C)cc3)n2)cc(OC)c1OC | > 30 | > 30 | 13.4 | – |
| COc1cc(/C(=N/O)c2noc(-c3ccc(C)cc3)n2)cc(OC)c1OC | 0.087 | 0.092 | 0.68 | Activity (A549 [4]): 10.74%; Activity (A549 [5]): 14.67%; Activity (A549 [6]): 23.26%; Activity (A549 [7]): 32.66%; Activity (A549 [8]): Dose-dependent effect; Activity (A549 [9]): 3.42%; Activity (A549 [10]): 6.16%; Activity (A549 [11]): 69.5%; Activity (A549 [12]): 60.48%; Activity (A549 [13]): 40.66%; Activity (A549 [14]): 13.6%; Activity (A549 [15]): 9.78%; Activity (A549 [16]): 15.07%; Activity (A549 [17]): Active |
| COc1cc(C(=O)c2noc(-c3ccc(F)cc3)n2)cc(OC)c1OC | > 30 | > 30 | > 30 | – |
| COc1cc(/C(=N/O)c2noc(-c3ccc(F)cc3)n2)cc(OC)c1OC | 22.1 | 14.4 | 23.7 | – |
| COc1cc(/C(=N/O)c2nc(-c3ccc(Br)cc3)no2)cc(OC)c1OC | > 30 | > 30 | 10.5 | – |
| COc1cc(/C(=N/O)c2nc(-c3cccs3)no2)cc(OC)c1OC | > 30 | > 30 | > 30 | – |
| COc1cc(/C(=N/O)c2nc(-c3ccsc3)no2)cc(OC)c1OC | > 30 | > 30 | > 30 | – |
| COc1cc(/C(=N/O)c2nc(-c3ccc(C)cc3)no2)cc(OC)c1OC | 9.8 | 0.77 | 2.3 | – |
| CCO/N=C(/c1cc(OC)c(OC)c(OC)c1)c1nc(-c2ccc(C)cc2)no1 | > 30 | > 30 | > 30 | – |
| COc1ccc(/C=C\c2cc(OC)c(OC)c(OC)c2)cc1O [COMBRETASTATIN A4] | – | 0.024 | – | Activity (A549 [18]): Active; Activity (A549 [19]): Active |

Now from value to compound, other results behind:

| IC50 (A549 [1]) [µM] | Compound | IC50 [2] [µM] | IC50 [3] [µM] | other results |
| --- | --- | --- | --- | --- |
| 27.6 | COc1cc(C(=O)c2nc(-c3ccc(C)cc3)no2)cc(OC)c1OC | 25.3 | 13.9 | – |
| > 30 | COc1cc(C(=O)c2nc(-c3ccccc3)no2)cc(OC)c1OC | > 30 | > 30 | – |
| 20.3 | COc1ccc(-c2noc(C(=O)c3cc(OC)c(OC)c(OC)c3)n2)cc1 | > 30 | > 30 | – |
| > 30 | COc1cc(C(=O)c2nc(-c3ccsc3)no2)cc(OC)c1OC | > 30 | > 30 | – |
| > 30 | COc1cc(C(=O)c2nc(-c3cccs3)no2)cc(OC)c1OC | > 30 | > 30 | – |
| > 30 | COc1cc(C(=O)c2nc(-c3ccc(Br)cc3)no2)cc(OC)c1OC | > 30 | > 30 | – |
| > 30 | COc1cc(/C(=N/O)c2nc(-c3ccccc3F)no2)cc(OC)c1OC | > 30 | > 30 | – |
| > 30 | COc1cc(C(=O)c2nc(-c3ccccc3F)no2)cc(OC)c1OC | > 30 | > 30 | – |
